These are literature values, as cited in patent US20240148879A1, “GLP-1R, GIP-R AND/OR GCGR AGONISTS, FORMULATIONS, AND METHODS OF USE” (Spitfire Pharma LLC, priority 2021, published 2024).

Bridge positions count the residues as written; N and C are the ends. Ends that are not written are not given here.

For data set [1] the following is noted: 12 weeks.

In the case of `CCCCCCCCCCCCCCCC(=O)N[C@@H](CCC(=O)NCCCC[C@H](NC(=O)[C@H](CC(=O)O)NC(=O)[C@H](CO)NC(=O)[C@@H](NC(=O)[C@H](Cc1ccccc1)NC(=O)[C@@H](NC(=O)CNC(=O)[C@H](CCC(N)=O)NC(=O)[C@H](CO)NC(=O)[C@@H](N)Cc1c[nH]cn1)[C@@H](C)O)[C@@H](C)O)C(=O)N[C@@H](CO)C(=O)N[C@@H](CCC(=O)O)C(=O)N[C@@H](Cc1ccc(O)cc1)C(=O)N[C@@H](CC(C)C)C(=O)N[C@@H](CC(=O)O)C(=O)N[C@@H](CO)C(=O)N[C@@H](CCC(=O)O)C(=O)N[C@@H](CCCNC(=N)N)C(=O)N[C@@H](C)C(=O)N[C@@H](CCCNC(=N)N)C(=O)N[C@@H](CC(=O)O)C(=O)N[C@@H](Cc1ccccc1)C(=O)N[C@H](C(=O)N[C@@H](C)C(=O)N[C@@H](Cc1c[nH]c2ccccc12)C(=O)N[C@@H](CC(C)C)C(=O)N[C@@H](CCC(=O)O)C(=O)N[C@@H](C)C(=O)NCC(=O)NCC(=O)O)C(C)C)C(=O)O` [cotadutide], the “reduction in liver fat content” value (6 weeks) is 39%. Moreover, the “NASH-related alanine aminotransferase (ALT) reduction” value (compared with liraglutide alone) was “greater improvement”. For the setting “over 26 weeks of administration”, the “degree of weight loss” value is reported as 5.4%.

With “JNJ 64565111: a balanced dual agonist (HAQGTFTSDYSKYLDEKRAKEFVQWLMNTX; lactam 16-20; X not resolved here; also: Fc carrier conjugate)”, the “reduction in body weight” value in data set [1] is 8%.
